Experimental data as given in US20150031674A1, “SERINE/THREONINE KINASE INHIBITORS” (GENENTECH, INC., priority 2013, published 2015).

Experiments:
[1] = tested on: group I PAKs in EBC1 cells (MEK1 phosphorylation at S298); assay: Cellular PAK IC50 Assay: MEK1 phosphorylation at S298 by HTRF; type: cell-based; conditions: Homo sapiens, EBC-1, 2 h treatment, media containing 0.1% FBS, phospho-MEK1 (S298) HTRF
Method: Cellular PAK IC50 Assay Protocol
Group I PAKs (PAK1-3) are activated upon binding to the Rho GTPases, Rac1 and Cdc42. Activated group I PAKs phosphorylate MEK1 at Serine 298 (S298), one of the two sites in the catalytic domain that is important for stable association between Raf and MEK1 and subsequent MAPK activation. The inhibition of group I PAKs in EBC1 cells is assessed by detecting changes in the level of MEK1 phosphorylation at S298 using homogenous time-resolved fluorescence (HTRF). Inhibitory activity was estimated by treating 2×10^4 EBC1 cells for 2 h with PAK inhibitors in media containing 0.1% FBS. Following inhibitor treatment, cells were lysed with 25 μL of 1× cellular kinase lysis buffer (Cisbio) containing 1× cellular kinase blocking reagent (Cisbio). Cellular lysis was carried out at 4° C. for 2 h with constant shaking before lysate (16 μL) was transferred to white 384-well ProxiPlates™ (Perkin Elmer). Anti-total MEK1 antibody labeled with Europium cryptate donor (1 ng/well) (Cell Signaling Technologies catalog number 2352) and anti-phospho MEK1 (S298) antibody labeled with d2 acceptor (Cell Signaling Technologies catalog number 9128) (10 ng/well) were prepared in 1× detection buffer (CisBio) and added to each well of the assay plate and allowed to incubate at RT overnight. The following day the fluorescence emission from each well was measured in EnVision® (Perkin Elmer) at an excitation of 330 nm and dual emission wavelengths of 615 nm and 665 nm. The signal in each well at 665 nm was multiplied by 10,000 and divided by the signal in the same well at 615 nm to obtain a ratio. Ratio values ([665·10,000]÷615) were plotted as a function of the concentration of compound to determine IC50 values.

[2] = target: human recombinant PAK1-KD protein (Homo sapiens, UniProt Q13153); assay: PAK1-KD (Kinase Domain) IC50 Zlyte Assay (FRET peptide substrate phosphorylation); conditions: Z'-LYTE, Biological Example 1
Chain of human recombinant PAK1-KD protein (Q13153 270-521 limits assumed): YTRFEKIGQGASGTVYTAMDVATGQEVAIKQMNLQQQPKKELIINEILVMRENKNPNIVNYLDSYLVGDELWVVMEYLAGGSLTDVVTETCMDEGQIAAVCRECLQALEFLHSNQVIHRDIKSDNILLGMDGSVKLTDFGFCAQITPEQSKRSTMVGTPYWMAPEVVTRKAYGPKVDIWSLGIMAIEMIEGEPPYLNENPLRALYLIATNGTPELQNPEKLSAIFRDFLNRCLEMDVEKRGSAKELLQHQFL
Text: PAK1-KD (Kinase Domain) IC50 Zlyte Assay Protocol
Activity of human recombinant PAK1-KD protein may be assessed in vitro by assay of the phosphorylation of a FRET peptide substrate. Catalytically active human recombinant PAK1-KD protein is obtained by purification from Tini cells infected with a human PAK1-KD recombinant baculovirus expression vector.
The activity/inhibition of PAK1-KD was estimated by measuring the phosphorylation of a FRET peptide substrate (Ser/Thr19) labeled with Coumarin and Fluorescein using Z′-LYTE™ assay (Invitrogen). The peptide substrate is a consensus sequence ([sequence]) based on various PAK substrates reported in the scientific literature. […] Incubations were carried out at 22° C. in black polypropylene 384-well plates (Corning Costar).

SMILES | IC50 [1] | Ki [2]
CCNc1ncc2cc(-c3ccc(-c4cncc(C)n4)cc3Cl)c(=O)n(CC3CCNCC3)c2n1 [Example I-6, 6-(2-Chloro-4-(6-methylpyrazin-2-yl)phenyl)-2-(ethylamino)-8-(piperidin-4-ylmethyl)pyrido[2,3-d]pyrimidin-7(8H)-one] | 170 nM | 
CCNc1ncc2cc(-c3ccc(-c4cccc(C)n4)cc3C)c(=O)n(CCCC(N)=O)c2n1 [Example I-70, 4-[2-(Ethylamino)-6-[2-methyl-4-(6-methyl-2-pyridyl)phenyl]-7-oxo-pyrido[2,3-d]pyrimidin-8-yl]butanamide] | 289 nM | 17.4 nM
CCNc1ncc2cc(-c3ccc(-c4cccc(C)n4)cc3Cl)c(=O)n(CC3CCNCC3)c2n1 [Example I-44, 6-(2-Chloro-4-(6-methylpyridin-2-yl)phenyl)-2-(ethylamino)-8-(piperidin-4-ylmethyl)pyrido[2,3-d]pyrimidin-7(8H)-one] | 72.3 nM | 4.6 nM
CCNc1ncc2cc(-c3ccc(-c4cncc(C)n4)cc3Cl)c(=O)n(CCCN)c2n1 [Example I-1, 8-(3-Aminopropyl)-6-[2-chloro-4-(6-methylpyrazin-2-yl)phenyl]-2-(ethylamino)pyrido[2,3-d]pyrimidin-7-one] | 249 nM | 8.23 nM
Cc1cccc(-c2ccc(-c3cc4cnc(NC5COC5)nc4n(CCOCCN)c3=O)c(C)c2)n1 [Example I-108, 8-[2-(2-aminoethoxy)ethyl]-6-[2-methyl-4-(6-methyl-2-pyridyl)phenyl]-2-(oxetan-3-ylamino)pyrido[2,3-d]pyrimidin-7-one] | 83.5 nM | 2.5 nM
CCNc1ncc2cc(-c3ccc(-c4cncc(C)n4)cc3Cl)c(=O)n(C[C@H]3CC[C@H](N(C)C)CC3)c2n1 [Example I-10, 6-(2-Chloro-4-(6-methylpyrazin-2-yl)phenyl)-8-(((1r,4r)-4-(dimethylamino)cyclohexyl)methyl)-2-(ethylamino)pyrido[2,3-d]pyrimidin-7(8H)-one] | 274 nM | 21.3 nM
CCNc1ncc2cc(-c3ccc(-c4cncc(C)n4)cc3Cl)c(=O)n(CC(C)OC3CNC3)c2n1 (single isomer, unassigned) [Example I-91, 8-[2-(Azetidin-3-yloxy)propyl]-6-[2-chloro-4-(6-methylpyrazin-2-yl)phenyl]-2-(ethylamino)pyrido[2,3-d]pyrimidin-7-one] | 108 nM | 7.1 nM
CCNc1ncc2cc(-c3ccc(-c4cncc(C)n4)cc3Cl)c(=O)n(CCC3CCCN3)c2n1 (single isomer, unassigned) [Example I-19] | 286 nM | 26.8 nM
CCNc1ncc2cc(-c3ccc(-c4ncccc4C)cc3Cl)c(=O)n(C[C@H]3CC[C@H](N)CC3)c2n1 [Example I-16, 8-(((1r,4r)-4-Aminocyclohexyl)methyl)-6-(2-chloro-4-(3-methylpyridin-2-yl)phenyl)-2-(ethylamino)pyrido[2,3-d]pyrimidin-7(8H)-one] | 75.6 nM | 7.2 nM
CCNc1ncc2cc(-c3ccc(-c4cncc(C)n4)cc3Cl)c(=O)n(CCN3CCNCC3)c2n1 [Example I-4, 6-(2-Chloro-4-(6-methylpyrazin-2-yl)phenyl)-2-(ethylamino)-8-(2-(piperazin-1-yl)ethyl)pyrido[2,3-d]pyrimidin-7(8H)-one] | 96 nM | 6.4 nM
CCNc1ncc2cc(-c3ccc(-c4cncc(C)n4)cc3Cl)c(=O)n(C[C@H]3CC[C@H](N)CC3)c2n1 [Example I-5, 8-(((1r,4r)-4-aminocyclohexyl)methyl)-6-(2-chloro-4-(6-methylpyrazin-2-yl)phenyl)-2-(ethylamino)pyrido[2,3-d]pyrimidin-7(8H)-one] | 147 nM | 
CCNc1ncc2cc(-c3ccc(-c4cncc(C)n4)cc3Cl)c(=O)n(CCCCN)c2n1 [Example I-2, 8-(4-Aminobutyl)-6-[2-chloro-4-(6-methylpyrazin-2-yl)phenyl]-2-(ethylamino)pyrido[2,3-d]pyrimidin-7-one] | 146 nM | 
CCNc1ncc2cc(-c3ccc(-c4cccc(C)n4)cc3Cl)c(=O)n(C[C@H]3CC[C@H](N)CC3)c2n1 [Example I-15, 8-(((1r,4r)-4-Aminocyclohexyl)methyl)-6-(2-chloro-4-(6-methylpyridin-2-yl)phenyl)-2-(ethylamino)pyrido[2,3-d]pyrimidin-7(8H)-one] | 46.8 nM | 
CNc1ncc2cc(-c3ccc(-c4cncc(C)n4)cc3Cl)c(=O)n(CC(=O)N3C[C@@H]4C[C@H]3CN4)c2n1 [Example I-155, 6-[2-Chloro-4-(6-methylpyrazin-2-yl)phenyl]-8-[2-[(1S,4S)-2 5-diazabicyclo[2.2.1]heptan-2-yl]-2-oxo-ethyl]-2-(methylamino)pyrido[2,3-d]pyrimidin-7-one] |  | 39.2 nM
Cc1cncc(-c2ccc(-c3cc4cnc(NC5COC5)nc4n(CCOCCO)c3=O)c(Cl)c2)n1 [Example I-67, 6-[2-Chloro-4-(6-methylpyrazin-2-yl)phenyl]-8-[2-(2-hydroxyethoxy)ethyl]-2-(oxetan-3-ylamino)pyrido[2,3-d]pyrimidin-7-one] |  | 77.8 nM
CNc1ncc2cc(-c3ccc(-c4csc(C5CC5)n4)cc3Cl)c(=O)n(C[C@@H]3CNCCO3)c2n1 [Example I-184, 6-[2-chloro-4-(2-cyclopropylthiazol-4-yl)phenyl]-2-(methylamino)-8-[[(2S)-morpholin-2-yl]methyl]pyrido[2,3-d]pyrimidin-7-one] |  | 43.1 nM
CCc1cc(-c2cncc(C)n2)ccc1-c1cc2cnc(NC)nc2n(CCCN)c1=O [Example I-131, 8-(3-aminopropyl)-6-[2-ethyl-4-(6-methylpyrazin-2-yl)phenyl]-2-(methylamino)pyrido[2,3-d]pyrimidin-7-one] |  | 32.5 nM
CCNc1ncc2cc(-c3ccc(-c4cncc(C)n4)cc3Cl)c(=O)n(CC[C@H](O)CO)c2n1 [Example I-83, (S)-6-(2-Chloro-4-(6-methylpyrazin-2-yl)phenyl)-8-(3,4-dihydroxybutyl)-2-(ethylamino)pyrido[2,3-d]pyrimidin-7(8H)-one] |  | 107 nM
CNc1ncc2cc(-c3ccc(-c4cccc(C)n4)cc3C)c(=O)n(CCC3CNCCO3)c2n1 (single isomer, unassigned) [Example I-110] |  | 3 nM
Cc1cncc(-c2ccc(-c3cc4cnc(NC5COC5)nc4n(C[C@H]4OC[C@H](N)CO4)c3=O)c(Cl)c2)n1 [Example I-164, 8-[(5-amino-1,3-dioxan-2-yl)methyl]-6-[2-chloro-4-(6-methylpyrazin-2-yl)phenyl]-2-(oxetan-3-ylamino)pyrido[2,3-d]pyrimidin-7-one] |  | 9.9 nM
Cc1cncc(-c2ccc(-c3cc4cnc(NC(C)C)nc4n(CCC4CNC(=O)C4)c3=O)c(Cl)c2)n1 (single isomer, unassigned) [Example I-98, 6-[2-Chloro-4-(6-methylpyrazin-2-yl)phenyl]-2-(isopropylamino)-8-[2-(5-oxopyrrolidin-3-yl)ethyl]pyrido[2,3-d]pyrimidin-7-one] |  | 21.8 nM
CNc1ncc2cc(-c3ccc(-c4cccc(C)n4)cc3Cl)c(=O)n(CCC3(C#N)CCNC3)c2n1 (stereo not drawn) [Example I-199, 3-[2-[6-[2-chloro-4-(6-methyl-2-pyridyl)phenyl]-2-(methylamino)-7-oxo-pyrido[2,3-d]pyrimidin-8-yl]ethyl]pyrrolidine-3-carbonitrile] |  | 2.8 nM
CCNc1ncc2cc(-c3ccc(-c4cncc(C)n4)cc3Cl)c(=O)n(CCOC3CCNC3)c2n1 (single isomer, unassigned) [Example I-51] |  | 13.2 nM
CNc1ncc2cc(-c3ccc(-c4cncc(C)n4)cc3Cl)c(=O)n(CC(=O)N3CCNCC3)c2n1 [Example I-84, 6-(2-Chloro-4-(6-methylpyrazin-2-yl)phenyl)-2-(methylamino)-8-(2-oxo-2-(piperazin-1-yl)ethyl)pyrido[2,3-d]pyrimidin-7(8H)-one] |  | 59.2 nM
CNc1ncc2cc(-c3ccc(-c4cncc(C)n4)cc3Cl)c(=O)n(CC(=O)NCCN)c2n1 [Example I-156, N-(2-aminoethyl)-2-[6-[2-chloro-4-(6-methylpyrazin-2-yl)phenyl]-2-(methylamino)-7-oxo-pyrido[2,3-d]pyrimidin-8-yl]acetamide] |  | 14.4 nM
CNc1ncc2cc(-c3ccc(-c4cncc(C)n4)cc3Cl)c(=O)n(CC(=O)N3CCC[C@H]3CN)c2n1 [Example I-154, 8-[2-[(2S)-2-(Aminomethyl)pyrrolidin-1-yl]-2-oxo-ethyl]-6-[2-chloro-4-(6-methylpyrazin-2-yl)phenyl]-2-(methylamino)pyrido[2,3-d]pyrimidin-7-one] |  | 39.4 nM
CCNc1ncc2cc(-c3ccc(-c4cncc(C)n4)cc3Cl)c(=O)n(CCC3CCNC3)c2n1 (stereo not drawn) [Example I-57, 6-(2-Chloro-4-(6-methylpyrazin-2-yl)phenyl)-2-(ethylamino)-8-(2-(pyrrolidin-3-yl)ethyl)pyrido[2,3-d]pyrimidin-7(8H)-one] |  | 4.1 nM
